Values joined by “and” are separate entries in the source; they are usually repeats but may differ in a detail not shown here. Equal entries are not always repeated.
Columns and labels:
hAChE = system: hAChE; design: method as in earlier work; conditions: Figure 1; ref 22 (1), 23 (2); cited from earlier work
hBChE = conditions: read-out: IC50 (hBChE); Figure 1; ref 22 (1), 23 (2), 24 (3), 25 (4); cited from earlier work
[1] = molecular target: T1, AChE (from human erythrocytes) (Homo sapiens, UniProt P22303); assay: biochemical; format: biochemical; conditions: mean ± SEM of three experiments; for AChE IR (inhibition ratio): at 10 μM
T1 construct: AChE (from human erythrocytes, C0663); purchased Sigma-Aldrich C0663; host or cells: human erythrocytes
Protocol: (§1) Modified Ellman’s assay was performed to measure the inhibitory effects of purchased compounds on ChEs using a Thermo Fisher Scientific spectrophotometer. AChE (from human erythrocytes, C0663), BChE (from human serum, B4186), 5,5-dithiobis-(2-nitrobenzoic acid) (DTNB, D218200), acetylthiocholine iodide (ATC, A5751), and butyrylthiocholine iodide (BTC, B3253) were purchased from Sigma-Aldrich (St. Louis, MO, USA).
(§2) For measurement, a cuvette containing 30 μL of phosphate buffer, 10 μL of AChE (2.5 units/mL) or BChE (2.5 units/mL), and 10 μL of the test compound solution was allowed to stand for 5 min before 10 μL of DTNB was added. After the addition of 20 μL of ATC or BTC, the reaction was initiated and the solution was mixed immediately. […] 10 μL of phosphate-buffered solution replaced the enzyme solution were used to determine the blank value. All the measurements were done in triplicate. The inhibition curve was drawn by plotting the percentage enzyme activity (100% for the reference) versus the logarithm of the test compound concentration. The IC50 values were calculated by GraphPad Prism 6 (GraphPad Software, San Diego, CA, USA), and the data were shown as mean ± standard error of mean (SEM).

BChE (from human serum) = molecular target: T2, BChE (from human serum) (Homo sapiens, UniProt P06276); assay: biochemical; format: biochemical; conditions: for BChE IR (inhibition ratio): at 10 μM; for BChE IR (inhibition ratio) / IC50: mean ± SEM of three experiments
T2 construct: BChE (from human serum, B4186); purchased Sigma-Aldrich B4186; host or cells: human serum
Protocol: as §1, §2

BChE = molecular target: T3, BChE (Homo sapiens, UniProt P06276); assay: Enzyme kinetic study with BChE (substrate BTC); format: biochemical; conditions: for Apparent Vmax: mean ± SD; for Kiu (inhibition constant for the uncompetitive part of inhibition) / Ki: mean ± SEM of three experiments; for Ki: read-out: Kic (inhibition constant for the competitive part of inhibition); for Mode of inhibition: substrate 90–904 μM, inhibitor 0.5–2 μM
T3 construct: BChE (from human serum, B4186); purchased Sigma-Aldrich B4186; host or cells: human serum
Protocol: Kinetic studies were performed in the same manner as the determination of ChE inhibition as previously described. The substrate (BTC) was used at various concentrations (90, 150, 226, 452, and 904 μM) for each test compound concentration and the enzymatic reaction was extended to four minutes before determining the absorption. The Vmax and Km values of the Michaelis–Menten kinetics were calculated by nonlinear regression from substrate–velocity curves using Graphpad Prism 6 (GraphPad Software, San Diego, CA, USA) (Table S1). […]

SH-SY5Y cells = assay: MTT cell viability assay; format: cell-based; conditions: 10 μM and 50 μM, 24 h
Protocol: The human neuroblastoma SH-SY5Y cells (3 × 10^3, DMEM medium supplemented with 10% fetal bovine serum, volume 0.1 mL) were placed in a 96-well flat-bottomed plate, in a humidified atmosphere of 95% air and 5% CO2 at 37 °C and grown to 80% confluence. Before cell treatment, the complete medium was replaced with reduced-serum medium (BI, 01-052-1ACS). Then, cells were treated with various concentrations of compounds for 24 h. MTT reagent (D&B, Q108115) (0.5 mg/mL) was added to the wells and the plates were incubated for 4 h at 37 °C. Supernatants were carefully removed, and 150 μL of dimethylsulfoxide (DMSO) were added into each well. The absorbance was measured at 570 nm using the spectrophotometer (Thermo, multiskan FC, USA). Cells were treated in quadruplicate. The values are the mean ± SD of three independent experiments.

T3 sequence (P06276 29-602): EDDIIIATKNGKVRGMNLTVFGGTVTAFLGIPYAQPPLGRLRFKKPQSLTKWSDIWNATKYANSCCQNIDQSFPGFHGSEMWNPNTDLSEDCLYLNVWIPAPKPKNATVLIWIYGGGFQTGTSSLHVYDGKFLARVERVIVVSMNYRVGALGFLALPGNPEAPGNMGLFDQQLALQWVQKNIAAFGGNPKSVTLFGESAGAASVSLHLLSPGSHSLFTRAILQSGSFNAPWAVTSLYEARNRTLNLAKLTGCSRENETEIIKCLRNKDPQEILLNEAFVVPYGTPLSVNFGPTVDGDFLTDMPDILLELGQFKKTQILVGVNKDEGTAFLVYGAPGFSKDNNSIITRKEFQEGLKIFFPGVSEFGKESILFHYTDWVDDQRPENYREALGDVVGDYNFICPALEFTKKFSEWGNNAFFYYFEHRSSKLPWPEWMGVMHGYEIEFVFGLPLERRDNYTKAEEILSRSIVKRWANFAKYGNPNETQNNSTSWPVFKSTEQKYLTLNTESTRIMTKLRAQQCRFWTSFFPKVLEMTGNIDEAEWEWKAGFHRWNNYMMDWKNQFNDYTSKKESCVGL
T2 sequence (P06276 29-602): as above
T1 sequence (P22303 other isoform, or with tags, fused parts or gaps): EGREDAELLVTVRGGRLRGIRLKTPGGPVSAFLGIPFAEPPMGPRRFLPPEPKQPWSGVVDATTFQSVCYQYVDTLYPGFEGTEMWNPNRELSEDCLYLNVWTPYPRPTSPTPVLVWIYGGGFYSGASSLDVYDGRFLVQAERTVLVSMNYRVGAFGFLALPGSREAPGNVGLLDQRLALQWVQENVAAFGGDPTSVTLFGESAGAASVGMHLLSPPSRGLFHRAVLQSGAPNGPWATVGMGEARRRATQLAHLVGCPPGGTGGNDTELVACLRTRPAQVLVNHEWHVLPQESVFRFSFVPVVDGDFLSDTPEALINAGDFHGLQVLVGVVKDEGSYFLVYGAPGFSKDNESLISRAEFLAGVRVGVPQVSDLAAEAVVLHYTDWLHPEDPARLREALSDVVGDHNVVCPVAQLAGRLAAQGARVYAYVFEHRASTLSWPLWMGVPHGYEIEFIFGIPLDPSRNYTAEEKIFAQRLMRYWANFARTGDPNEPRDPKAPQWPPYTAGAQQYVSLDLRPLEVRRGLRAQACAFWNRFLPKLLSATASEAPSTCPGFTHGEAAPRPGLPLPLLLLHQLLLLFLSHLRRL

COCCN(CC1CCCN(Cc2ccccc2)C1)S(=O)(=O)c1ccc2ccccc2c1 (centres unmarked) [Compound 1, N-((1-benzylpiperidin-3-yl)methyl)-N-(2-methoxyethyl)naphthalene-2-sulfonamide]
IC50 (hAChE): > 10000 nM

CN(C)CCN(CC1CCCN(C2Cc3ccccc3C2)C1)C(=O)c1ccc2ccccc2c1 (centres unmarked) [Compound 2]
IC50 (hAChE): > 10000 nM

O=C1NCCCc2c1c1ccccc1n2CCc1cccc(F)c1 [Compound 3]
IC50 (hBChE): 1.8 nM

CCCCCCCNC(=O)Oc1ccc2c(c1)CN(C)C(c1cccs1)N2C (centres unmarked) [Compound 4]
IC50 (hBChE): 13 nM

Cc1ccc(S(=O)(=O)Nc2nc3ccccc3nc2NCc2ccc(F)cc2)cc1C [Compound 5]
AChE IR (inhibition ratio) [1]: −0.31 ± 0.5% | BChE IR (inhibition ratio) (BChE (from human serum)): 7.2 ± 0.6%

Cc1nc(-c2cccc(F)c2)n(CCC(=O)NCCCc2ccccc2)c(=O)c1CCO [Compound 6]
AChE IR (inhibition ratio) [1]: −1.5 ± 0.5% | BChE IR (inhibition ratio) (BChE (from human serum)): 8.5 ± 0.3%

Cc1noc(C)c1CN(C)Cc1ccn(S(=O)(=O)c2ccccc2)c1 [Compound 7]
AChE IR (inhibition ratio) [1]: 0.6 ± 0.6% | BChE IR (inhibition ratio) (BChE (from human serum)): 16.3 ± 1.1%

COc1ccccc1CN1CCCC(CN(CCN(C)C)C(=O)C(=O)c2ccccc2)C1 (centres unmarked) [Compound 8]
BChE selective index (SI BChE, AChE IC50/BChE IC50) (BChE (from human serum)): > 30 | IC50 (BChE (from human serum)): 1100 ± 600 nM | Apparent Vmax (BChE; inhibitor 0.5 µM): 0.34 ± 0.01 µM/min | Apparent Vmax (BChE; inhibitor 1 µM): 0.27 ± 0.01 µM/min | Apparent Vmax (BChE; inhibitor 1.5 µM): 0.25 ± 0.01 µM/min | Apparent Vmax (BChE; inhibitor 2 µM): 0.24 ± 0.01 µM/min | Kiu (inhibition constant for the uncompetitive part of inhibition) (BChE): 3.61 ± 0.24 µM | Ki (BChE): 880 ± 70 nM | Mode of inhibition (BChE): mixed-type inhibitors | Effect on cell viability (cytotoxicity) (SH-SY5Y cells): none of compounds was observed to affect cell viability

COCCN1C(=O)N(CCc2ccccc2)C(=O)C12CCN(Cc1ccccc1)CC2 [Compound 9]
AChE IR (inhibition ratio) [1]: 16.0 ± 1.5% | BChE IR (inhibition ratio) (BChE (from human serum)): 15.5 ± 1.6%

O=C(CC1NC(N2CCN(Cc3ccccc3)CC2)=NC1=O)Nc1ccccc1 (centres unmarked) [Compound 10]
AChE IR (inhibition ratio) [1]: 7.8 ± 0.7% | BChE IR (inhibition ratio) (BChE (from human serum)): 9.9 ± 1.0%

O=C(NC1(C(F)(F)F)N=C(c2ccccc2)N(Cc2ccccc2)C1=O)c1ccco1 (centres unmarked) [Compound 11]
AChE IR (inhibition ratio) [1]: −0.7 ± 0.7% | BChE IR (inhibition ratio) (BChE (from human serum)): 14.8 ± 1.3%

CC1=NC2C(SC(=S)N2Cc2ccco2)C(=O)N1CC(=O)NCCc1ccccc1 (centres unmarked) [Compound 12]
AChE IR (inhibition ratio) [1]: 1.1 ± 1.0% | BChE IR (inhibition ratio) (BChE (from human serum)): −1.8 ± 1.1%

COc1cccc(N(CC(=O)N2CCN(Cc3ccccc3)CC2)S(=O)(=O)c2ccccc2)c1 [Compound 13]
AChE IR (inhibition ratio) [1]: 11.3 ± 1.3% | BChE IR (inhibition ratio) (BChE (from human serum)): 20.1 ± 1.2%

CCN(Cc1ccccc1)C(=O)CCc1nc2ccsc2c(=O)n1Cc1ccccc1 [Compound 14]
AChE IR (inhibition ratio) [1]: 10.9 ± 0.8% | BChE IR (inhibition ratio) (BChE (from human serum)): 3.4 ± 0.4%

O=C(O)C(c1c[nH]c2ccccc12)N1CCN(c2ccccn2)CC1 (centres unmarked) [Compound 15]
AChE IR (inhibition ratio) [1]: 0.6 ± 1.0% | BChE IR (inhibition ratio) (BChE (from human serum)): −0.6 ± 0.5%

COc1cccc(S(=O)(=O)NCC2CCCN(Cc3cc4ccccc4o3)C2)c1 (centres unmarked) [Compound 16]
AChE IR (inhibition ratio) [1]: 38.7 ± 1.7% | BChE IR (inhibition ratio) (BChE (from human serum)): 26.4 ± 1.1%

Cc1cc(C)cc(N(CC(=O)N2CCN(Cc3ccccc3)CC2)S(=O)(=O)c2ccccc2)c1 [Compound 17]
AChE IR (inhibition ratio) [1]: 2.9 ± 0.5% | BChE IR (inhibition ratio) (BChE (from human serum)): 11.8 ± 1.2%

COc1ccc(CCN2CCCC(O)(CNCc3cc(C)ccc3C)C2=O)cc1 (centres unmarked) [Compound 18]
AChE IR (inhibition ratio) [1]: 11.1% and 11.1 ± 1.5% | BChE selective index (SI BChE, AChE IC50/BChE IC50) (BChE (from human serum)): > 30 | BChE IR (inhibition ratio) (BChE (from human serum)): 58.4% and 58.4 ± 0.9% | IC50 (BChE (from human serum)): 6300 ± 2000 nM | Apparent Vmax (BChE; inhibitor 0.5 µM): 0.49 ± 0.01 µM/min | Apparent Vmax (BChE; inhibitor 1 µM): 0.42 ± 0.02 µM/min | Apparent Vmax (BChE; inhibitor 1.5 µM): 0.39 ± 0.01 µM/min | Apparent Vmax (BChE; inhibitor 2 µM): 0.28 ± 0.02 µM/min | Kiu (inhibition constant for the uncompetitive part of inhibition) (BChE): 2.31 ± 0.32 µM | Ki (BChE): 930 ± 130 nM | Mode of inhibition (BChE): mixed-type inhibitors | Effect on cell viability (cytotoxicity) (SH-SY5Y cells): none of compounds was observed to affect cell viability

COC(=O)c1c(S(=O)(=O)Nc2ccc(C)cc2)sc2c1CCN(Cc1ccccc1O)C2 [Compound 19]
IC50 [1]: 13800 ± 6000 nM | BChE selective index (SI BChE, AChE IC50/BChE IC50) (BChE (from human serum)): 6 | IC50 (BChE (from human serum)): 2400 ± 1000 nM
